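GI50: concentration for 50% inhibition of growth. TGI: concentration producing complete growth inhibition.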
Tests used:
Assay in all cases: inhibition of tumour cell growth, NCI panel, 384-well format
[1] = system: 786-0 renal
[2] = system: A498 renal
[3] = system: A549 NSCLC
[4] = system: BT-549 breast
[5] = system: CCRF-CEM leukemia
[6] = system: COLO 205 colon
[7] = system: DU-145 prostate
[8] = system: EKVX NSCLC
[9] = system: HCC-2998 colon
[10] = system: HCT-15 colon
[11] = system: HL-60(TB) leukemia
[12] = system: HOP-62 NSCLC
[13] = system: HOP-92 NSCLC
[14] = system: HS 578T breast
[15] = system: HT29 colon
[16] = system: IGROV1 ovarian
[17] = system: K-562 leukemia
[18] = system: KM12 colon
[19] = system: M14 melanoma
[20] = system: MALME-3M melanoma
[21] = system: MCF7 breast
[22] = system: MDA-MB-231 breast
[23] = system: MDA-MB-435 melanoma
[24] = system: MDA-MB-468 breast
[25] = system: MOLT-4 leukemia
[26] = system: NCI-H23 lung
[27] = system: NCI-H322M lung
[28] = system: NCI-H522 lung
[29] = system: NCI/ADR-RES ovarian
[30] = system: OVCAR-3 ovarian
[31] = system: OVCAR-4 ovarian
[32] = system: OVCAR-5 ovarian
[33] = system: OVCAR-8 ovarian
[34] = system: PC-3 prostate
[35] = system: RPMI-8226 leukemia
[36] = system: RXF 393 renal
[37] = system: SF-268 CNS
[38] = system: SF-295 CNS
[39] = system: SF-539 CNS
[40] = system: SK-MEL-28 melanoma
[41] = system: SK-MEL-5 melanoma
[42] = system: SK-OV-3 ovarian
[43] = system: SN12C renal
[44] = system: SNB-75 CNS
[45] = system: SR leukemia
[46] = system: SW-620 colon
[47] = system: UACC-257 melanoma
[48] = system: UACC-62 melanoma
[49] = system: UO-31 renal

Compound: CC[C@H](Nc1nc(NCc2cnc(C)cc2C)c2ncn(C(C)C)c2n1)[C@@H](C)O
- GI50 [1]: 227 nM
- TGI [1]: 657 nM
- GI50 [2]: 240 nM
- TGI [2]: 648 nM
- GI50 [3]: 315 nM
- TGI [3]: > 100000 nM
- GI50 [4]: 138 nM
- TGI [4]: 294 nM
- GI50 [5]: 160 nM
- TGI [5]: 307 nM
- GI50 [6]: 206 nM
- TGI [6]: 508 nM
- GI50 [7]: 302 nM
- TGI [7]: 1260 nM
- GI50 [8]: 267 nM
- TGI [8]: 757 nM
- GI50 [9]: 159 nM
- TGI [9]: 380 nM
- GI50 [10]: 296 nM
- TGI [10]: 817 nM
- GI50 [11]: 148 nM
- TGI [11]: 282 nM
- GI50 [12]: 225 nM
- TGI [12]: 638 nM
- GI50 [13]: 230 nM
- TGI [13]: 569 nM
- GI50 [14]: 134 nM
- TGI [14]: 291 nM
- GI50 [15]: 198 nM
- TGI [15]: 472 nM
- GI50 [16]: 277 nM
- TGI [16]: 797 nM
- GI50 [17]: 286 nM
- TGI [17]: 960 nM
- GI50 [18]: 239 nM
- TGI [18]: 737 nM
- GI50 [19]: 156 nM
- TGI [19]: 533 nM
- GI50 [20]: 298 nM
- TGI [20]: 967 nM
- GI50 [21]: 333 nM
- TGI [21]: 1330 nM
- GI50 [22]: 196 nM
- TGI [22]: 767 nM
- GI50 [23]: 245 nM
- TGI [23]: 693 nM
- GI50 [24]: 182 nM
- TGI [24]: 334 nM
- GI50 [25]: 184 nM
- TGI [25]: 334 nM
- GI50 [26]: 173 nM
- TGI [26]: 343 nM
- GI50 [27]: 226 nM
- TGI [27]: 501 nM
- GI50 [28]: 180 nM
- TGI [28]: 341 nM
- GI50 [29]: 1540 nM
- TGI [29]: 4670 nM
- GI50 [30]: 232 nM
- TGI [30]: 516 nM
- GI50 [31]: 316 nM
- TGI [31]: 1290 nM
- GI50 [32]: 248 nM
- TGI [32]: 691 nM
- GI50 [33]: 225 nM
- TGI [33]: 551 nM
- GI50 [34]: 224 nM
- TGI [34]: 594 nM
- GI50 [35]: 149 nM
- TGI [35]: 284 nM
- GI50 [36]: 175 nM
- TGI [36]: 349 nM
- GI50 [37]: 166 nM
- TGI [37]: 386 nM
- GI50 [38]: 224 nM
- TGI [38]: 522 nM
- GI50 [39]: 185 nM
- TGI [39]: 383 nM
- GI50 [40]: 163 nM
- TGI [40]: 335 nM
- GI50 [41]: 139 nM
- TGI [41]: 291 nM
- GI50 [42]: 452 nM
- TGI [42]: 3390 nM
- GI50 [43]: 217 nM
- TGI [43]: 487 nM
- GI50 [44]: 183 nM
- TGI [44]: 424 nM
- GI50 [45]: 137 nM
- TGI [45]: 269 nM
- GI50 [46]: 205 nM
- TGI [46]: 780 nM
- GI50 [47]: 232 nM
- TGI [47]: 445 nM
- GI50 [48]: 171 nM
- TGI [48]: 397 nM
- GI50 [49]: 353 nM
- TGI [49]: > 100000 nM
